As usually defined, the bioavailability is the share of a dose that reaches the circulation, judged against a reference dose that is usually intravenous.

These results are taken from patent US9688760B2, “Anti-leukocyte adhesion for the mitigation of potential adverse events caused by CD3-specific binding domains” (AMGEN RESEARCH (MUNICH) GMBH, priority 2013, dated 2017).

One series relates to HUVEC. The series is described as follows: In vitro flow chamber: T cell-rolling and adhesion on HUVEC, long-term conditions. The class given is cell-based, human. Conditions: non-stimulated HUVEC, 40 min. On the procedure: (§1) Human brain microvascular endothelial cells (HBMEC) (#1000, Sciencell Research Laboratories) or human umbilical vein endothelial cells (HUVEC) (#C-12200, Promocell) were used as endothelial cell-model. Cryopreserved HBMEC at passage 1 (>5×10^5 cells/ml) were first cultivated in fibronectin-coated Nunclon-treated 75 cm^2 cell culture flasks (#156499, Nunc) at 37° C. and 5% CO2 in a Heraeus Cytoperm 2 (Thermo Scientific) according to the manufacturer's instructions. Sub-cultivation of HBMEC was done with the Detach Kit (#C-41200, Promocell) consisting of HEPES-buffered balanced salt solution (#C-40000, Promocell), trypsin-EDTA solution (0.04%/0.03%) (#C-41000, Promocell) and trypsin neutralization solution (TNS, #C-41100, Promocell). Briefly, the medium was aspirated from the HBMEC-layer and cells were washed with 2 ml of HEPES-buffered balanced salt solution. Addition of 2 ml of trypsin-EDTA solution for 1-5 min at room temperature led to detachment of HBMEC from the flask bottom. Inactivation of trypsin-EDTA solution was performed by addition of 2 ml of trypsin neutralization solution to the cell suspension. Cells were centrifuged at 300 g for 4 min in a Heraeus Megafuge 40 (Thermo Scientific) and seeded at a cell density of 5×10^5 cells per gelatin-coated 75 cm^2 cell culture flask (#L7230, Biochrom). HBMEC for rolling and adhesion experiments were cultivated in RPMI 1640 medium (#FG1215, Biochrom) supplemented with Nu-Serum IV (10%) (#355505, BD Biosciences), dialyzed FBS (10%) (#SZ0115, Biochrom), MEM-vitamins (1%) (#K0373, Biochrom), L-glutamine (1%) (#K0283, Biochrom), sodium-pyruvate (1%) (#L0473, Biochrom), heparin (10 U/ml) (#L6510, Biochrom), and […] cell growth factor ECGS (30 μg/ml) (#02-102, Millipore). Cultivation of HUVEC was done in endothelial cell growth medium (#C-22010, Promocell) supplemented with dialyzed FBS (10%) (#SZ0115, Biochrom) using gelatin-coated 75 cm^2 cell culture flasks. Sub-cultivation of HUVEC was performed with the Detach Kit ([…], Promocell) and cells were seeded at a cell density of 4.0-7.5×10^5 cells per 75 cm^2 cell culture flask.
Isolation of human PBMC from blood was performed by modified density gradient centrifugation as described elsewhere. Briefly, 15-20 ml of freshly drawn heparinized blood was transferred in Biocoll (#L6115, Biochrom)-containing Leukosep tubes (#227290, Greiner bio-one) and centrifuged in a Hettich Rotanta 460 RS Type 5606 (Hettich Laborapparate) at 1066 g for 15 min. After removal of the plasma fraction the PBMC containing phase was transferred in a new tube and washed twice with FACS-buffer (D-PBS #L1820, 5% FBS #SO115, Biochrom). Erythrocyte lysis was performed with lysis buffer (8.29 g/l NH4Cl, 1.00 g/l KHCO3, 0.037 g/l EDTA) for 5 min at room temperature. […]

The conditions of series [1]: cited from earlier work.
In another series the test system is stroke patients. The conditions noted are these: iv, for several days; equivalent to 700 mg per os; cited from earlier work.
In a further series the test system is HBMEC. The series is described as follows: In vitro flow chamber: T cell-rolling on HBMEC, long-term conditions. It counts as cell-based, human. On the procedure:
as §1
Isolation of human PBMC from blood was performed by modified density gradient centrifugation as described elsewhere. Briefly, 15-20 ml of freshly drawn heparinized blood was transferred in Biocoll (#L6115, Biochrom)-containing Leukosep tubes (#227290, Greiner bio-one) and centrifuged in a Hettich Rotanta 460 RS Type 5606 (Hettich Laborapparate) at 1066 g for 15 min. After removal of the plasma fraction the PBMC containing phase was transferred in a new tube and washed twice with FACS-buffer (D-PBS #L1820, 5% FBS #SO115, Biochrom). Erythrocyte lysis was performed with lysis buffer (8.29 g/l NH4Cl, 1.00 g/l KHCO3, 0.037 g/l EDTA) for 5 min at room temperature. For subsequent purification of untouched T cells the human Pan T cell-isolation Kit II (#130-091-156, Miltenyi Biotec) was used according to the manufacturer's instructions.
The ibidi Pump System (#10902, ibidi) was used for cultivation of endothelial cells under flow conditions as well as for performing adhesion and rolling assays of human T cells on endothelial cells. The system consists of the ibidi Pump (#10905, ibidi) and the ibidi Fluidic Unit (#10903, ibidi) which work together to generate a unidirectional flow of medium in an attached slide with a defined channel height. The system is controlled by the ibidi Pump Control software (#10908, notebook+software, ibidi). For cultivation of HBMEC or HUVEC under flow conditions, HBMEC or HUVEC were seeded at a cell density of 2.5×10^6 cells/ml into μ-slide I^0.4 Luer Collagen IV (#80172, ibidi) or μ-slide I^0.4 Luer ibiTreat (#80176, ibidi), respectively according to the manufacturer's instructions and cultivated with a perfusion set “yellow/green” (#10964, ibidi) for 48 h under wall shear stress of 5 or 10 dyn/cm^2, respectively. […]

The test system of another series is patients. The series is described as follows: Phase 1 clinical study: Blinatumomab with PPS co-medication. The class given is in vivo, human. On the procedure: In a phase 1 clinical study three patients were treated with Blinatumomab at an initial dose of 5 μg/m^2/day for 1 week followed by a dose escalation to 60 μg/m^2/day for additional 3 to 7 weeks.
The conditions of series [2]: pH 6; cited from earlier work.

With `CN(C)c1ccc(O)c2c1C[C@H]1C[C@H]3[C@H](N(C)C)C(O)=C(C(N)=O)C(=O)[C@@]3(O)C(O)=C1C2=O` [minocycline, Minocycline], the “mean T cell-rolling velocity±SD” value with HUVEC (+AMG 103 10 ng/ml, T cells pre-incubated with 50 μg/ml minocycline) came out at 217±92 μm/sec; in the series on HUVEC (−AMG 103, +minocycline 50 μg/ml), 233±29 μm/sec. Besides, the bioavailability in series [1] (after oral administration) is approximately 100%. Besides, the in vivo half-life entry in series [1] (in vivo) is “approximately 24 hours”. The “daily doses found to be safe and well-tolerated” value with stroke patients is recorded as “up to 10 mg/kg”.
Take “natalizumab: antibody approved for the treatment of multiple sclerosis; binds to VLA-4 on T cells [reference compound]”: the “mean T cell-rolling velocity±SD” value in the series on HBMEC (non-stimulated HBMEC, +AMG 103 10 ng/ml, T cells pre-incubated with 1 μg/ml natalizumab, 40 min) came out at 444±110 μm/sec; in the series on HBMEC (non-stimulated HBMEC, −AMG 103, +natalizumab 1 μg/ml, 40 min), 445±81 μm/sec.
Consider “β1→4-D-Xylan-2,3-bis(hydrogen sulfate) [PPS, reference compound]”, for which, in the series with patients (all three patients with PPS co-medication), the “T cell-counts in peripheral blood vs baseline, 45 minutes after start of infusion or stepwise dose increase” value was “no decline of T cell-counts”. The T cell-redistribution kinetics result with patients (all three patients with intravenous PPS, absence of CD19-positive target cells) is on record as “delayed T cell-redistribution kinetics”. For the same compound, in the series on patients (intervention with intravenous PPS), the “earliest detection of decreased T cell-counts in peripheral blood after start of infusion or stepwise dose increase of Blinatumomab” value is not below 2 h. In addition, the “discontinuation of Blinatumomab treatment due to neurological adverse effects” value in the series with patients (three patients with intravenous PPS at start of infusion and dose step, high risk (low B:T cell-ratios)) is reported as “none of these three patients had to discontinue treatment”. Also, the “mean T cell-rolling velocity±SD” value in the series on HBMEC (histamine-stimulated HBMEC, +AMG 103 10 ng/ml, +PPS 200 μg/ml, 45 min) was determined as 483±157 μm/sec; in the series on HBMEC (histamine-stimulated HBMEC, −AMG 103, +PPS 200 μg/ml, 45 min), 442±156 μm/sec; in the series on HBMEC (non-stimulated HBMEC, +AMG 103 10 ng/ml, +PPS 200 μg/ml, 40 min) it was 465±116 μm/sec; in the series with HBMEC (non-stimulated HBMEC, −AMG 103, +PPS 200 μg/ml, 40 min), 514±159 μm/sec. For the same compound, in series [2], the solubility in water is recorded as 50%.
